Laboratory results: patent US6939946B2, “Ring modified cyclic peptide analogs” (Eli Lilly and Company, priority 1998, dated 2005)
Counter-ions that a name gives are not always drawn. Bridge positions count the residues as written; N and C are the ends. Square brackets hold non-standard residues; d marks the D form. Peptide text beside a SMILES is read from it. * marks the point of attachment. ξ: configuration not given here. pTerphenylCO(4''-OnC5H11) = CCCCCOc1ccc(-c2ccc(-c3ccc(C(=O)*)cc3)cc2)cc1; Pro(3S-OH,4S-Me) = C[C@H]1CN[C@H](C(=O)O)[C@H]1O; hTyr(3R-OH) = N[C@H](C(=O)O)[C@H](O)Cc1ccc(O)cc1; Hyp = O=C(O)[C@@H]1C[C@@H](O)CN1; Thr(3ξ) = CC(O)[C@H](N)C(=O)O; Orn = NCCC[C@H](N)C(=O)O; dDap = NC[C@@H](N)C(=O)O; Dap = NC[C@H](N)C(=O)O; ξDap = NCC(N)C(=O)O

Experiments:
Conditions in all cases: in vitro
[1] = test system: C. albicans
[2] = test system: C. parapsilosis
[3] = test system: A. fumigatus
[4] = test system: Histoplasma capsulatum
[5] = test system: Cryptococcus neoformans

Row | SMILES | Minimal Inhibitory Concentration MIC C. albicans [1] [µg/mL] | Minimal Inhibitory Concentration MIC C. parapsilosis [2] [µg/mL] | Minimal Inhibitory Concentration MIC A. fumigatus [3] [µg/mL] | Minimal Inhibitory Concentration MIC Histoplasma capsulatum [4] [µg/mL] | Minimal Inhibitory Concentration MIC Cryptococcus neoformans [5] [µg/mL]
1 | CCCCCOc1ccc(-c2ccc(-c3ccc(C(=O)NC[C@H]4NC(=O)CNC(=O)[C@@H]5[C@@H](O)[C@@H](C)CN5C(=O)[C@H](C(C)O)NC(=O)[C@H]([C@H](O)Cc5ccc(O)cc5)NC(=O)[C@@H]5C[C@@H](O)CN5C(=O)[C@H](C(C)O)NC4=O)cc3)cc2)cc1 (stereo partly drawn) [E7-14(a)] (cyclo(G[dDap](pTerphenylCO(4''-OnC5H11))[Thr(3ξ)][Hyp][hTyr(3R-OH)][Thr(3ξ)][Pro(3S-OH,4S-Me)])) | 0.312 | >20 | >20 | 0.312 | >20
2 | CCCCCOc1ccc(-c2ccc(-c3ccc(C(=O)N[C@H]4CNC(=O)CNC(=O)[C@@H]5[C@@H](O)[C@@H](C)CN5C(=O)[C@H](C(C)O)NC(=O)[C@H]([C@H](O)Cc5ccc(O)cc5)NC(=O)[C@@H]5C[C@@H](O)CN5C(=O)[C@H](C(C)O)NC4=O)cc3)cc2)cc1 (stereo partly drawn) [E7-6(b)] ({pTerphenylCO(4''-OnC5H11)}-[Dap][Thr(3ξ)][Hyp][hTyr(3R-OH)][Thr(3ξ)][Pro(3S-OH,4S-Me)]G; lactam 1-C) | 0.312 | >20 | 5.0 | 1.25 | >20
3 | CCCCCOc1ccc(-c2ccc(-c3ccc(C(=O)N[C@@H]4CNC(=O)CNC(=O)[C@@H]5[C@@H](O)[C@@H](C)CN5C(=O)[C@H](C(C)O)NC(=O)[C@H]([C@H](O)Cc5ccc(O)cc5)NC(=O)[C@@H]5C[C@@H](O)CN5C(=O)[C@H](C(C)O)NC4=O)cc3)cc2)cc1 (stereo partly drawn) [E7-6(a)] ({pTerphenylCO(4''-OnC5H11)}-[dDap][Thr(3ξ)][Hyp][hTyr(3R-OH)][Thr(3ξ)][Pro(3S-OH,4S-Me)]G; lactam 1-C) | >20 | >20 | >20 | >20 | >20
4 | C[C@@H]1[C@H](O)[C@@H](C)/C=C/C=C/C=C/C=C/C=C/C=C/C=C/[C@H](O[C@@H]2O[C@H](C)[C@@H](O)[C@H](N)[C@@H]2O)C[C@@H]2O[C@](O)(C[C@@H](O)C[C@@H](O)[C@H](O)CC[C@@H](O)C[C@@H](O)CC(=O)O[C@H]1C)C[C@H](O)[C@H]2C(=O)O [Ampho B, Amphotericin B, reference compound] | 0.078 | 0.038 | 0.312 | 0.039 | 0.039
5 | CCCCCOc1ccc(-c2ccc(-c3ccc(C(=O)NC4CNC(=O)[C@@H]5[C@@H](O)[C@@H](C)CN5C(=O)[C@H](C(C)O)NC(=O)[C@H]([C@H](O)Cc5ccc(O)cc5)NC(=O)[C@@H]5C[C@@H](O)CN5C(=O)[C@H](C(C)O)NC4=O)cc3)cc2)cc1 (stereo partly drawn) [Compound E1-7] ({pTerphenylCO(4''-OnC5H11)}-[ξDap][Thr(3ξ)][Hyp][hTyr(3R-OH)][Thr(3ξ)][Pro(3S-OH,4S-Me)]; lactam 1-C) | 0.312 | >20 | 0.625 | 0.625 | –
6 | CCCCCOc1ccc(-c2ccc(-c3ccc(C(=O)NC[C@@H]4NC(=O)CNC(=O)[C@@H]5[C@@H](O)[C@@H](C)CN5C(=O)[C@H](C(C)O)NC(=O)[C@H]([C@H](O)Cc5ccc(O)cc5)NC(=O)[C@@H]5C[C@@H](O)CN5C(=O)[C@H](C(C)O)NC4=O)cc3)cc2)cc1 (stereo partly drawn) [E7-14(b)] (cyclo([Dap](pTerphenylCO(4''-OnC5H11))[Thr(3ξ)][Hyp][hTyr(3R-OH)][Thr(3ξ)][Pro(3S-OH,4S-Me)]G)) | 0.156 | >20 | >20 | 0.078 | >20
7 | CCCCCOc1ccc(-c2ccc(-c3ccc(C(=O)N[C@H]4CCN(C)NC(=O)[C@@H]5[C@@H](O)[C@@H](C)CN5C(=O)[C@H](C(C)O)NC(=O)[C@H]([C@H](O)Cc5ccc(O)cc5)NC(=O)[C@@H]5C[C@@H](O)CN5C(=O)[C@H](C(C)O)NC4=O)cc3)cc2)cc1 (single isomer, unassigned) [E2-11(a) HCl salt] | 0.001 | 0.156 | 0.078 | 0.02 | –
8 | CCCCCOc1ccc(-c2ccc(-c3ccc(C(=O)N[C@H]4CCN(C)NC(=O)[C@@H]5[C@@H](O)[C@@H](C)CN5C(=O)[C@H](C(C)O)NC(=O)[C@H]([C@H](O)Cc5ccc(O)cc5)NC(=O)[C@@H]5C[C@@H](O)CN5C(=O)[C@H](C(C)O)NC4=O)cc3)cc2)cc1 (single isomer, unassigned) [E2-11(a) TFA salt] | 0.005 | 0.156 | 0.039 | 0.78 | –
9 | CCCCCOc1ccc(-c2ccc(-c3ccc(C(=O)N[C@H]4CCN(CC)NC(=O)[C@@H]5[C@@H](O)[C@@H](C)CN5C(=O)[C@H](C(C)O)NC(=O)[C@H]([C@H](O)Cc5ccc(O)cc5)NC(=O)[C@@H]5C[C@@H](O)CN5C(=O)[C@H](C(C)O)NC4=O)cc3)cc2)cc1 (stereo partly shown) [E2-11(b)] | 0.001 | 0.156 | 0.312 | 0.02 | –
10 | CCCCCOc1ccc(-c2ccc(-c3ccc(C(=O)NC4CS(=O)(=O)CCNC(=O)[C@@H]5[C@H](O)[C@@H](C)CN5C(=O)[C@H]([C@@H](C)O)NC(=O)[C@H]([C@H](O)Cc5ccc(O)cc5)NC(=O)[C@@H]5C[C@@H](O)CN5C(=O)[C@H]([C@@H](C)O)NC4=O)cc3)cc2)cc1 (stereo partly shown) [Compound E3-6] | 10 | >20 | 20 | 10 | –
11 | CCCCCOc1ccc(-c2ccc(-c3ccc(C(=O)N[C@H]4CCCNC(=O)[C@@H]5[C@@H](O)[C@@H](C)CN5C(=O)[C@H](C(C)O)NC(=O)[C@H]([C@H](O)Cc5ccc(O)cc5)NC(=O)[C@@H]5C[C@@H](O)CN5C(=O)[C@H](Cc5ccc(O)cc5)NC4=O)cc3)cc2)cc1 (stereo partly drawn) [Compound E5-7] ({pTerphenylCO(4''-OnC5H11)}-[Orn]Y[Hyp][hTyr(3R-OH)][Thr(3ξ)][Pro(3S-OH,4S-Me)]; lactam 1-C) | >20 | >20 | >20 | >20 | –
